Laboratory results as given in patent US9951049B2, “Pyrazole linked benzimidazole conjugates and a process for preparation thereof” (Council of Scientific & Industrial Reseach, priority 2014, dated 2018).

What was measured:
[1] = system: HL-60(TB); assay: NCI SRB screen, HL-60(TB); format: cell-based; settings: Homo sapiens, Leukemia, 48 h
[2] = system: HS 578T; assay: NCI SRB screen, HS 578T; settings: Homo sapiens, 48 h, read-out: GI50 values
[3] = system: SR; assay: NCI SRB screen, SR; settings: Homo sapiens, 48 h, read-out: GI50 values
[4] = system: NCI-H226; assay: NCI SRB screen, NCI-H226; settings: Homo sapiens, NCI-H226, 48 h, read-out: GI50 values
[5] = system: TK-10; assay: NCI SRB screen, TK-10; settings: Homo sapiens, TK-10, 48 h, read-out: GI50 values
[6] = system: NCI/ADR-RES; assay: NCI SRB screen, NCI/ADR-RES; settings: Homo sapiens, 48 h, read-out: GI50 values
[7] = system: CCRF-CEM; assay: NCI SRB screen, CCRF-CEM; settings: Homo sapiens, 48 h, read-out: GI50 values
[8] = system: Renal cancer cell lines; assay: NCI SRB screen, Renal panel average; settings: Homo sapiens, 48 h, read-out: Log10 GI50 (converted)
[9] = system: MDA-MB-435; assay: NCI SRB screen, MDA-MB-435 (Melanoma panel); settings: Homo sapiens, MDA-MB-435, 48 h, read-out: GI50 values
[10] = system: CNS cancer cell lines; assay: NCI SRB screen, CNS panel average; settings: Homo sapiens, 48 h, read-out: Log10 GI50 (converted)
[11] = system: T-47D; assay: NCI SRB screen, T-47D; settings: Homo sapiens, T47D, 48 h, read-out: GI50 values
[12] = system: NCI-H522; assay: NCI SRB screen, NCI-H522; settings: Homo sapiens, NCI-H522, 48 h, read-out: GI50 values, Non-small cell lung, NCI-H522
[13] = system: HCT-116; assay: NCI SRB screen, HCT-116; settings: Homo sapiens, HCT-116, 48 h, read-out: GI50 values
[14] = system: SNB-19; assay: NCI SRB screen, SNB-19; settings: Homo sapiens, SNB-19, 48 h, read-out: GI50 values
[15] = system: K-562; assay: NCI SRB screen, K-562; settings: Homo sapiens, K562, 48 h, read-out: GI50 values
[16] = system: SN12C; assay: NCI SRB screen, SN12C; settings: Homo sapiens, 48 h, read-out: GI50 values
[17] = system: OVCAR-3; assay: NCI SRB screen, OVCAR-3; settings: Homo sapiens, OVCAR-3, 48 h, read-out: GI50 values
[18] = system: OVCAR-4; assay: NCI SRB screen, OVCAR-4; settings: Homo sapiens, OVCAR-4, 48 h, read-out: GI50 values
[19] = system: SF-295; assay: NCI SRB screen, SF-295; settings: Homo sapiens, SF-295, 48 h, read-out: GI50 values
[20] = system: 786-0; assay: NCI SRB screen, 786-0; settings: Homo sapiens, 786-0, 48 h, read-out: GI50 values
[21] = system: Melanoma cell lines; assay: NCI SRB screen, Melanoma panel average; settings: Homo sapiens, 48 h, read-out: Log10 GI50 (converted)
[22] = system: SK-MEL-5; assay: NCI SRB screen, SK-MEL-5; settings: Homo sapiens, SK-MEL-5, 48 h, read-out: GI50 values, Melanoma, SK-MEL-5
[23] = system: Non-small-cell lung cancer cell lines; assay: NCI SRB screen, Non-small-cell lung panel average; settings: Homo sapiens, 48 h, read-out: Log10 GI50 (converted)
[24] = system: BT-549; assay: NCI SRB screen, BT-549; settings: Homo sapiens, BT-549, 48 h, read-out: GI50 values
[25] = system: M14; assay: NCI SRB screen, M14; settings: Homo sapiens, M14, 48 h, read-out: GI50 values
[26] = system: MCF7; assay: NCI SRB screen, MCF7; settings: Homo sapiens, MCF7, 48 h, read-out: GI50 values
[27] = system: ACHN; assay: NCI SRB screen, ACHN; settings: Homo sapiens, 48 h, read-out: GI50 values
[28] = system: HOP-62; assay: NCI SRB screen, HOP-62; settings: Homo sapiens, HOP-62, 48 h, read-out: GI50 values
[29] = system: HCC-2998; assay: NCI SRB screen, HCC-2998; settings: Homo sapiens, HCC 2998, 48 h, read-out: GI50 values
[30] = system: MALME-3M; assay: NCI SRB screen, MALME-3M; settings: Homo sapiens, 48 h, read-out: GI50 values
[31] = system: OVCAR-5; assay: NCI SRB screen, OVCAR-5; settings: Homo sapiens, OVCAR-5, 48 h, read-out: GI50 values
[32] = system: A549/ATCC; assay: NCI SRB screen, A549/ATCC; settings: Homo sapiens, A549, 48 h, read-out: GI50 values
[33] = system: Colon cancer cell lines; assay: NCI SRB screen, Colon panel average; settings: Homo sapiens, 48 h, read-out: Log10 GI50 (converted)
[34] = system: MDA-MB-231/ATCC; assay: NCI SRB screen, MDA-MB-231/ATCC; settings: Homo sapiens, MDA-MB-231, 48 h, read-out: GI50 values

Work on `COc1cc(-c2cc(-c3nc4cc(Cl)c(Cl)cc4[nH]3)[nH]n2)cc(OC)c1OC` [10f, 5,6-dichloro-2-(3-(3,4,5-trimethoxyphenyl)-1H-pyrazol-5-yl)-1H-benzo[d]imidazole] yielded a GI50 [1] of 3.34 µM, a GI50 [2] of 4.53 µM and a GI50 [3] of 3.89 µM. For the same molecule, the GI50 [4] was 2.29 µM, the GI50 [5] was 4.61 µM and the GI50 [6] was 3.25 µM. It also gave a GI50 [7] of 2.35 µM, a GI50 [8] of 3.55 µM and a GI50 [9] of 3.78 µM. For the same molecule, the GI50 [10] was 3.55 µM, the GI50 [11] was 1.87 µM and the GI50 [12] was 2.02 µM. For the same molecule, the GI50 [13] was 2.78 µM, the GI50 [14] was 5.47 µM and the GI50 [15] was 3.3 µM. It also gave a GI50 [16] of 3.05 µM, a GI50 [17] of 4.05 µM and a GI50 [18] of 2.21 µM. It also gave a GI50 [19] of 3.04 µM, a GI50 [20] of 4.09 µM and a GI50 [21] of 2.82 µM. It also gave a GI50 [22] of 1.56 µM, a GI50 [23] of 2.95 µM and a GI50 [24] of 2.84 µM. The GI50 [25] was 3.57 µM, the GI50 [26] was 2.79 µM and the GI50 [27] was 3.54 µM. It also gave a GI50 [28] of 3.43 µM, a GI50 [29] of 4.47 µM and a GI50 [30] of 2.7 µM. The GI50 [31] was 7.08 µM, the GI50 [32] was 2.87 µM and the GI50 [33] was 3.63 µM. For the same molecule, the GI50 [34] was 4.14 µM.
